Laboratory results taken from patent US10681909B2, “Herbicidal triazoles” (FMC Corporation, priority 2014, dated 2020).

Legend:
[1] = system: lambsquarters; assay: Test C postemergence; format: in vivo, Chenopodium album
Method in brief: (§1)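 Preemergence: seeds sown in loam soil–sand blend and treated with test chemicals formulated in a non-phytotoxic solvent mixture containing a surfactant. Postemergence: plants grown in peat moss/vermiculite-based medium and sprayed with the same formulation at 2 to 18 cm height (1- to 4-leaf stage).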

[2] = system: oilseed rape; assay: Test C postemergence; format: in vivo, Brassica napus
Method in brief: as §1

[3] = system: pigweed; assay: Test C postemergence; format: in vivo, Amaranthus retroflexus
Method in brief: as §1

[4] = system: kochia; assay: Test C postemergence; format: in vivo, Kochia scoparia
Method in brief: as §1

[5] = system: foxtail, giant; assay: Test C postemergence; format: in vivo, Setaria faberii
Method in brief: as §1

[6] = system: johnsongrass; assay: Test C postemergence; format: in vivo, Sorghum halepense
Method in brief: as §1

[7] = system: blackgrass; assay: Test C postemergence; format: in vivo, Alopecurus myosuroides
Method in brief: as §1

[8] = system: waterhemp; assay: Test C postemergence; format: in vivo, Amaranthus rudis
Method in brief: as §1

[9] = system: barnyardgrass; assay: Test A preemergence; format: in vivo, Echinochloa crus-galli; conditions: 0 to 100 scale (0 no effect, 100 complete control)
Method in brief: (§2)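 Test chemicals, formulated in a surfactant-containing non-phytotoxic solvent mixture, are applied either as a directed soil spray to newly planted seeds or as a postemergence application to plants at the one- to two-leaf stage (2–10 cm). All plants grow in a loam soil and sand blend.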

[10] = system: velvetleaf; assay: Test C postemergence; format: in vivo, Abutilon theophrasti
Method in brief: as §1

[11] = system: barnyardgrass; assay: Test B flooded paddy test; format: in vivo, Echinochloa crus-galli; conditions: 250 g ai/ha, applied to paddy water at 2-leaf stage, visual rating after 13 to 15 d, scale 0 (no effect) to 100 (complete control)
Method in brief: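 Pots were flooded to 3 cm above the soil at treatment, and compounds were applied directly into the paddy water. That depth was held throughout. After 13 to 15 d in a greenhouse, plants were rated visually against untreated controls.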

[12] = system: barnyardgrass; assay: Test C postemergence; format: in vivo, Echinochloa crus-galli
Method in brief: as §1

[13] = system: pigweed; assay: Test A postemergence; format: in vivo, Amaranthus retroflexus; conditions: 0 to 100 scale (0 no effect, 100 complete control), approx. 10 d
Method in brief: as §2

[14] = system: crabgrass, large; assay: Test C postemergence; format: in vivo, Digitaria sanguinalis
Method in brief: as §1

[15] = system: galium; assay: Test C postemergence; format: in vivo, Galium aparine
Method in brief: as §1

[16] = system: wheat; assay: Test A postemergence; format: in vivo, Triticum aestivum; conditions: 0 to 100 scale (0 no effect, 100 complete control), approx. 10 d
Method in brief: as §2

[17] = system: foxtail, giant; assay: Test A postemergence; format: in vivo, Setaria faberii; conditions: 0 to 100 scale (0 no effect, 100 complete control), approx. 10 d
Method in brief: as §2

[18] = system: ragweed; assay: Test C postemergence; format: in vivo, Ambrosia elatior
Method in brief: as §1

[19] = system: corn; assay: Test C postemergence; format: in vivo, Zea mays
Method in brief: as §1

Fc1ccc(-c2nc(OCC(F)(F)F)n(Cc3ccnc(C(F)(F)F)c3)n2)cc1 [Compound 30]
55: Plant response rating (scale of 0 to 100 where 0 is no effect and 100 is complete control) ([10]; 31 g ai/ha) | Plant response rating (scale of 0 to 100 where 0 is no effect and 100 is complete control) ([18]; 62 g ai/ha)
5: Plant response rating (scale of 0 to 100 where 0 is no effect and 100 is complete control) ([5]; 31 g ai/ha)
95: Plant response rating (scale of 0 to 100 where 0 is no effect and 100 is complete control) ([1]; 125 g ai/ha) | Plant response rating (scale of 0 to 100 where 0 is no effect and 100 is complete control) ([1]; 250 g ai/ha) | Plant response rating (scale of 0 to 100 where 0 is no effect and 100 is complete control) ([2]; Oilsee Rape, 250 g ai/ha) | Plant response rating (scale of 0 to 100 where 0 is no effect and 100 is complete control) ([2]; Oilseed Rape, 125 g ai/ha) | Plant response rating (scale of 0 to 100 where 0 is no effect and 100 is complete control) ([3]; 31 g ai/ha) | Plant response rating (scale of 0 to 100 where 0 is no effect and 100 is complete control) ([3]; 62 g ai/ha) | Plant response rating (scale of 0 to 100 where 0 is no effect and 100 is complete control) ([8]; 31 g ai/ha) | Plant response rating (scale of 0 to 100 where 0 is no effect and 100 is complete control) ([8]; 125 g ai/ha)
98: Plant response rating (scale of 0 to 100 where 0 is no effect and 100 is complete control) ([3]; 125 g ai/ha) | Plant response rating (scale of 0 to 100 where 0 is no effect and 100 is complete control) ([3]; 250 g ai/ha) | Plant response rating (scale of 0 to 100 where 0 is no effect and 100 is complete control) ([8]; 62 g ai/ha) | Plant response rating (scale of 0 to 100 where 0 is no effect and 100 is complete control) ([8]; 250 g ai/ha)
70: Plant response rating (scale of 0 to 100 where 0 is no effect and 100 is complete control) ([1]; 31 g ai/ha)
35: Plant response rating (scale of 0 to 100 where 0 is no effect and 100 is complete control) ([2]; Oilseed Rape, 31 g ai/ha) | Plant response rating (scale of 0 to 100 where 0 is no effect and 100 is complete control) ([6]; 125 g ai/ha) | Plant response rating (scale of 0 to 100 where 0 is no effect and 100 is complete control) ([14]; 125 g ai/ha)
25: Plant response rating (scale of 0 to 100 where 0 is no effect and 100 is complete control) ([5]; 125 g ai/ha) | Plant response rating (scale of 0 to 100 where 0 is no effect and 100 is complete control) ([5]; 250 g ai/ha) | Plant response rating (scale of 0 to 100 where 0 is no effect and 100 is complete control) ([7]; 31 g ai/ha) | Plant response rating (scale of 0 to 100 where 0 is no effect and 100 is complete control) ([12]; 31 g ai/ha) | Plant response rating (scale of 0 to 100 where 0 is no effect and 100 is complete control) ([19]; 125 g ai/ha)
80: Plant response rating (scale of 0 to 100 where 0 is no effect and 100 is complete control) ([2]; Oilseed Rape, 62 g ai/ha) | Plant response rating (scale of 0 to 100 where 0 is no effect and 100 is complete control) ([10]; 125 g ai/ha) | Plant response rating (scale of 0 to 100 where 0 is no effect and 100 is complete control) ([15]; 31 g ai/ha) | Plant response rating (scale of 0 to 100 where 0 is no effect and 100 is complete control) ([15]; 62 g ai/ha) | Plant response rating, Foxtail, Giant ([17]; 125 g ai/ha)
85: Plant response rating (scale of 0 to 100 where 0 is no effect and 100 is complete control) ([1]; 62 g ai/ha) | Plant response rating (scale of 0 to 100 where 0 is no effect and 100 is complete control) ([12]; 250 g ai/ha) | Plant response rating (scale of 0 to 100 where 0 is no effect and 100 is complete control) ([18]; 250 g ai/ha)
65: Plant response rating (scale of 0 to 100 where 0 is no effect and 100 is complete control) ([18]; 31 g ai/ha) | Plant response rating (scale of 0 to 100 where 0 is no effect and 100 is complete control) ([18]; 125 g ai/ha)
60: Plant response rating (scale of 0 to 100 where 0 is no effect and 100 is complete control) ([7]; 250 g ai/ha) | Plant response rating (scale of 0 to 100 where 0 is no effect and 100 is complete control) ([10]; 62 g ai/ha) | Plant response rating (scale of 0 to 100 where 0 is no effect and 100 is complete control) ([14]; 250 g ai/ha)
10: Plant response rating (scale of 0 to 100 where 0 is no effect and 100 is complete control) ([5]; 62 g ai/ha) | Plant response rating, Wheat ([16]; 125 g ai/ha) | Plant response rating (scale of 0 to 100 where 0 is no effect and 100 is complete control) ([19]; 62 g ai/ha)
40: Plant response rating (scale of 0 to 100 where 0 is no effect and 100 is complete control) ([7]; 125 g ai/ha) | Plant response rating (scale of 0 to 100 where 0 is no effect and 100 is complete control) ([12]; 125 g ai/ha)
20: Plant response rating (scale of 0 to 100 where 0 is no effect and 100 is complete control) ([12]; 62 g ai/ha) | Plant response rating (scale of 0 to 100 where 0 is no effect and 100 is complete control) ([14]; 31 g ai/ha) | Plant response rating (scale of 0 to 100 where 0 is no effect and 100 is complete control) ([19]; 250 g ai/ha)
30: Plant response rating (scale of 0 to 100 where 0 is no effect and 100 is complete control) ([6]; 31 g ai/ha) | Plant response rating (scale of 0 to 100 where 0 is no effect and 100 is complete control) ([6]; 250 g ai/ha) | Plant response rating (scale of 0 to 100 where 0 is no effect and 100 is complete control) ([7]; 62 g ai/ha) | Plant response rating, Barnyardgrass, Flood [11] | Plant response rating, Wheat ([16]; 500 g ai/ha)
15: Plant response rating (scale of 0 to 100 where 0 is no effect and 100 is complete control) ([14]; 62 g ai/ha) | Plant response rating (scale of 0 to 100 where 0 is no effect and 100 is complete control) ([19]; 31 g ai/ha)
100: Plant response rating (scale of 0 to 100 where 0 is no effect and 100 is complete control) ([4]; 31 g ai/ha) | Plant response rating (scale of 0 to 100 where 0 is no effect and 100 is complete control) ([4]; 62 g ai/ha) | Plant response rating (scale of 0 to 100 where 0 is no effect and 100 is complete control) ([4]; 125 g ai/ha) | Plant response rating (scale of 0 to 100 where 0 is no effect and 100 is complete control) ([4]; 250 g ai/ha) | Plant response rating (scale of 0 to 100 where 0 is no effect and 100 is complete control) ([6]; 62 g ai/ha) | Plant response rating, Barnyardgrass ([9]; 500 g ai/ha, approx. 10 d) | Plant response rating, Pigweed ([13]; 125 g ai/ha) | Plant response rating, Pigweed ([13]; 500 g ai/ha)
90: Plant response rating, Barnyardgrass ([9]; 125 g ai/ha) | Plant response rating (scale of 0 to 100 where 0 is no effect and 100 is complete control) ([10]; 250 g ai/ha) | Plant response rating (scale of 0 to 100 where 0 is no effect and 100 is complete control) ([15]; 125 g ai/ha) | Plant response rating (scale of 0 to 100 where 0 is no effect and 100 is complete control) ([15]; 250 g ai/ha) | Plant response rating, Foxtail, Giant ([17]; 500 g ai/ha)
